Test results reported in patent US10202381B2, “Histone demethylase inhibitors” (CELGENE QUANTICEL RESEARCH, INC., priority 2014, dated 2019).

Columns and labels:
JMJD2C = JMJD2C (Homo sapiens (Human), UniProt Q9H3R0); assay: In vitro enzyme inhibition assay (JMJD2C TR-FRET); type: biochemical; settings: 0.3 nM JMJD2C, 300 nM H3K9me3-biotin peptide, 2 μM alpha-ketoglutaric acid
Protocol: This assay determines the ability of a test compound to inhibit JMJD2C demethylase activity. Baculovirus expressed JMJD2C (GenBank Accession #BC143571, AA 2-372) was purchased from BPS Bioscience (Cat#50105).
The ability of test compounds to inhibit the activity of JMJD2C was determined in 384-well plate-format under the following reaction conditions: 0.3 nM JMJD2C, 300 nM H3K9me3-biotin labeled peptide (Anaspec cat #64360), 2 μM alpha-ketoglutaric acid in assay buffer of 50 mM HEPES, pH 7.3, 0.005% Brij35, 0.5 mM TCEP, 0.2 mg/ml BSA, 50 μM sodium L-ascorbate, and 2 μM ammonium iron(II) sulfate. Reaction product was determined quantitatively by TR-FRET after the addition of detection reagent Phycolink Streptavidin-allophycocyanin (Prozyme) and Europium-anti-di-methylated histone H3 lysine 9 (H3K9me2) antibody (PerkinElmer) in the presence of 5 mM EDTA in LANCE detection buffer (PerkinElmer) at a final concentration of 50 nM and 1 nM, respectively.
The assay reaction was initiated by the following: 2 μl of the mixture of 900 nM H3K9me3-biotin labeled peptide and 6 μM alpha-ketoglutaric acid with 2 μl of 11-point serial diluted inhibitor in 3% DMSO were added to each well of the plate, followed by the addition of 2 μl of 0.9 nM JMJD2C to initiate the reaction. The reaction mixture was incubated at room temperature for 30 min, and terminated by the addition of 6 μl of 5 mM EDTA in LANCE detection buffer containing 100 nM Phycolink Streptavidin-allophycocyanin and 2 nM Europium-anti-H3K9me2 antibody. Plates were read by EnVisionMultilabel Reader in TR-FRET mode (excitation at 320 nm, emission at 615 nm and 665 nm) after 1 hr incubation at room temperature. A ratio was calculated (665/615) for each well and fitted to determine inhibition constant (IC50).
The ability of the compounds disclosed herein to inhibit demethylase activity was quantified and the respective IC50 value was determined. Table 3 provides the IC50 values of various compounds disclosed herein.

[1] = tested on: KYSE-150 esophageal carcinoma cell line; assay: In vitro cell-based assay: BrdU cell proliferation ELISA; set-up: species or system human; settings: Homo sapiens; KYSE-150 cells, BrdU incorporation after 168 hr of compound incubation; read-out: Cellular IC50
Protocol: Cell lines tested include the JMJD2C gene amplified cell line KYSE-150. This is a quantitative ELISA assay measuring DNA incorporation of BrdU during S-phase as a direct readout of cellular proliferation.
Assay Principle: This is a colorimetric immunoassay for the quantification of cell proliferation. Cells treated for 168 hr with test compounds are assayed for their ability to go through S-phase as a measure of their proliferative potential.
Assay Method: The human KYSE-150 (SMAD4 mut, TP53 mut) esophageal carcinoma cell line was seeded at 2,000 cells/well on a 96-well tissue culture treated plate. After an overnight incubation, cells were treated with compound in an 11-point dilution series with final concentrations ranging from 100 μM to 2 nM. Cells were then incubated in the presence of compound for 168 hr. After compound incubation the cells were assayed using a BrdU Cell Proliferation ELISA (Roche). The cells were first incubated with BrdU labeling reagent for 2 hr. After 2 hr, the BrdU incorporated cells were fixed and denatured, probed with an anti-BrdU-Peroxidase antibody for 1.5 hr and washed. Finally, a tetramethylbenzidine peroxidase substrate was added to each well for 15 min. followed by a H2SO4 stop solution. The plate was read at 450 nm, and the raw optical density data was transferred into XLFit (IDBS) for IC50 calculation using the formula: fit=(D+((Vmax*(x^n))/((x^n)+(Km^n)))).
Table 4 provides the cellular IC50 values of various compounds disclosed herein.

Sequence of JMJD2C (Q9H3R0 2-372): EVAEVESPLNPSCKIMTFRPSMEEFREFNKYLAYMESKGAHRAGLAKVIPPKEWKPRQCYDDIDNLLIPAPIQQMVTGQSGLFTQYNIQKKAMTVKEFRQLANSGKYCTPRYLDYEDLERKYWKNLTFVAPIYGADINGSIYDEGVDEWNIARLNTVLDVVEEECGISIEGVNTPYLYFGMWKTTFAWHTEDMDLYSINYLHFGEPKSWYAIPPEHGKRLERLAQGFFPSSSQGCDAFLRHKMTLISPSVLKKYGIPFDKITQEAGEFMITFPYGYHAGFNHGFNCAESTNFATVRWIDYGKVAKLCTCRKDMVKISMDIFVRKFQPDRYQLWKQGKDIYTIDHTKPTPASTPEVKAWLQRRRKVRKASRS

SMILES | IC50 (JMJD2C) [nM] | IC50 [1] [nM]
CN1CCN(c2cc(N(C)c3ccc(Oc4nc(O)c5ccncc5n4)cc3)ccc2OCC(F)(F)F)CC1 [Example 136, -(4-(methyl(3-(4-methylpiperazin-1-yl)-4-(2,2,2-trifluoroethoxy)phenyl)amino)phenoxy)pyrido[3,4-d]pyrimidin-4-ol] | ≤ 100 | 1000 to 10000
CCc1ccc(N(C)c2ccc(Oc3nc(O)c4ccncc4n3)cc2)c(OC)c1 [Example 137, 2-(4-((4-ethyl-2-methoxyphenyl)(methyl)amino)phenoxy)pyrido[3,4-d]pyrimidin-4-ol] | 100 to 1000 | > 10000

Results, then the compound that gave them:

IC50 (JMJD2C) [nM] | IC50 [1] [nM] | SMILES
≤ 100 | 1000 to 10000 | CCN1CCN(c2cccc(N(C)c3ccc(Oc4nc(O)c5ccncc5n4)cc3)c2)CC1 [Example 138, 2-(4-((3-(4-ethylpiperazin-1-yl)phenyl)(methyl)amino)phenoxy)pyrido[3,4-d]pyrimidin-4-ol]
≤ 100 | 100 to 1000 | CN1CCC(c2cccc(N(C)c3ccc(Oc4nc(O)c5ccncc5n4)cc3)c2)CC1 [Example 140, 2-(4-(methyl(3-(1-methylpiperidin-4-yl)phenyl)amino)phenoxy)pyrido[3,4-d]pyrimidin-4-ol]
≤ 100 | ≤ 100 | CCN(c1ccc(Oc2nc(O)c3ccncc3n2)cc1)c1cccc(N2CCN(C)CC2)c1 [Example 141, 2-(4-(ethyl(3-(4-methylpiperazin-1-yl)phenyl)amino)phenoxy)pyrido[3,4-d]pyrimidin-4-ol]
